Test [1] has as its system Molt-4 human leukemia cells. In words: Cell count of Molt-4 human leukemia cells over time. Conditions: FIG. 11; [ART-Phe-Sal]=10 mM, [DHA]=10 μM, [ART-Tf]=12 μM; cells counted at different times. It counts as cell-based. The protocol:
Molt-4-lymphoblastoid cells were purchased from the American Type Culture Collection (Rockville, Md.). They are acute lympoblastic leukemia cells from human peripheral blood. Cultures were maintained in RPMI-1640 (Gibco, Long Island, N.Y.) supplemented with 10% fetal bovine serum (Hyclone, New Haven, Conn.). Cells were cultured at 37° C. in 5% CO2/95% air and 100% humidity, and were split 1:2 at a concentration of approximately 1×10^6/mL. Approximate cell numbers before experiment were between 150×10^3 to 300×10^3 per mL.
FIG. 11 compares the effects of ART-Phe-Sal, DHA, and artemisinin-tagged holotransferrin (ART-Tf) on Molt-4 human leukemia cell.

The test system of test [2] is DAOY medulloblastoma cells. In words: DAOY medulloblastoma cells, MTT assay and light microscopy. It counts as cell-based. The protocol:
The compound ART-Phe-Sal was tested on DAOY medulloblastoma cells using the MTT assay. DAOY Medulloblastoma cells (5,000 cells/200 μL) was seeded on a 96 well plate and incubated for 24 h at 37° C. Cell culture medium was removed after 24 h and 150 μL of medium with treatment was added. Each experimental treatment had holo-Tf (20 μg/well). Treatment assay was viewed under light microscope after 24 h.
Treatment medium was removed after 48 h, and 100 μL of cell medium was added. MTT Reagent (10 μL, 12 mM) was added to each well. This solution was incubated at 37° C. for 4 h. Isopropanol (100 μL) was added to each well to lyse the cells, which were then incubated at 4° C. for 30 m. After incubation each well was plunged (3×200 μL) to ensure the cells were lysed. The incubated medium with MTT reagent was then centrifuged at 13,000 RPM in an eppendorph centrifuge for 3 minutes at room temperature. 100 μL of supernatant was read in a plate reader at λ=570 nm. FIG. 13 compares the effect of dihydroartemisinin (DHA) and ART-Phe-Sal on DAOY medulloblastoma cell line. The concentration of holo-Tf was 1.7 μM.
For orientation: Tetrazolium dyes change colour on reduction, which living cells bring about.

Entries after “also recorded” stand apart in the source; their conditions may differ.

As to `CC1CCC2C(C)C(OCc3ccc(C(=O)NN=Cc4ccccc4O)cc3)OC3OC4(C)CCC1C32OO4` (stereo not drawn) [ART-Phe-Sal, N′-(2-hydroxybenzylidene)-4-(dihydroxyartemisinin-methyl)-phenyl carbohydrazide], the “effect on Molt-4 human leukemia cells (cell count, words)” value in test [1] is reported as “can effectively kill human leukemia cells; also recorded: more potent than either dihydroartemisinin (DHA) or artemisinin-tagged holotransferrin (ART-Tf)”. Moreover, the “activity against DAOY medulloblastoma cells” value in test [2] (FIG. 13, MTT assay, 48 h treatment, holo-Tf 1.7 μM) was “active against DAOY medulloblastoma cells”. In addition, the “cell shrinkage under light microscope” value in test [2] (after 24 h treatment, each treatment had holo-Tf (20 μg/well)) is on record as “Moderate cell shrinkage”.

Source of the values: US7692030B2, “Conjugates of artemisinin-related endoperoxides and hydrazone derivatives for the treatment of cancer” (University of Washington, priority 2006, dated 2010).
